Laboratory results reported in PMC6010023, “Diethylalkylsulfonamido(4-methoxyphenyl)methyl)phosphonate/phosphonic acid derivatives act as acid phosphatase inhibitors: synthesis accompanied by experimental and molecular modeling assessments” (Journal of Enzyme Inhibition and Medicinal Chemistry, 2016).
Like-named read-outs stand apart in the source and are kept apart here.

Molecular target: T1, red kidney bean PAP (rkbPAP) (Phaseolus vulgaris, UniProt P80366)
T1 construct: The rkbPAP was purified from red kidney bean according to the method described by Beck et al; from tissue; host or cells: red kidney bean seeds (Phaseolus vulgaris), local market
T1 sequence (P80366 23-459): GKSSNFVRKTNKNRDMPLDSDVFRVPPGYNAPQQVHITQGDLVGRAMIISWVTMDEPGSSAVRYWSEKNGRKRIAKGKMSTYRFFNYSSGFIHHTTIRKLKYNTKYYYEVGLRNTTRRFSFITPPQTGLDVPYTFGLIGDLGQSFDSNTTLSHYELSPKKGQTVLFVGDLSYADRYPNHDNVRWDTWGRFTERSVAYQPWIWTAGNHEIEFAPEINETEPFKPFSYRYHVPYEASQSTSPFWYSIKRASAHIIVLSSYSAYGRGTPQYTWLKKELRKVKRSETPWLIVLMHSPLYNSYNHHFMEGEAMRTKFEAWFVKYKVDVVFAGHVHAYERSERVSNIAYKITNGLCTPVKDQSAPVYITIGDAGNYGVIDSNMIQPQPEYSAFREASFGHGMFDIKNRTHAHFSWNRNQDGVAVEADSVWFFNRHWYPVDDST
Test: rkbPAP inhibition assay with p-NPP as substrate
Format: biochemical
Conditions: for inhibition of PAP (in words) / Ki: pH 4.9; for inhibition mode: from Ki vs KI and Lineweaver–Burk plots
Text: PAP from red kidney bean (rkbPAP) was purified following a previously published protocol. Briefly, red kidney beans (Phaseolus vulgaris), provided from local market, were ground and suspended in 0.5 M sodium chloride solution. The suspension was filtered through a muslin cloth, followed by ethanol fractionation and ammonium sulfate precipitation. The purple enzyme solution was dialyzed against several changes of 0.25 M NaCl over a period of several days. The purple precipitate, which formed in the dialysis bag was collected by centrifugation. The resulting preparation stored at 4 °C in 0.5 M NaCl. The protein identity and purity was tested by SDS–polyacrylamide gel electrophoresis (SDS–PAGE) and by comparing with molecular weight protein markers, by loading the protein samples on a 12% slab gel. Protein concentration was determined by Lowry method.
Inhibition assays for rkbPAP was performed in 96-well multi-titer plates using a microplate reader. Kinetic measurements were taken at pH 4.9 (0.1 M sodium citrate buffer with 5% DMSO) at 25 °C using p-nitrophenyl phosphate (p-NPP) as the substrate at concentrations of 1, 2, 4, 6, 8, 10, 12, 14, 18 and 24 mM[29]. The hydrolysis of p-NPP by PAP produces p-nitrophenol (p-NP), which has a characteristic intense yellow color at 405 nm with […] [18]^,[26]. The concentration of enzyme used was ∼60 nM, while at least eight concentrations of each compound ranged from 50 to 2000 µM. The IC50 values obtained by “Dose–response inhibition/variable slopes” equation that was performed using GraphPad Prism version 5.00 for Windows (GraphPad Software, San Diego CA, www.graphpad.com). The experimental data are representative example of three independent experiments. In most cases, the standard deviations were almost within 5% of the experimental values, except for some inhibition data points where standard errors of means were within 10% of the measured values. p < .05 was considered statistically significant.
To determination of inhibition mode, the Michaelis–Menten constant (Km) and maximum velocity (Vmax) and inhibition constants (Ki and KI) values were obtained using Equation (1)[29]^,[30] in the presence of at least four concentrations of each compound which were selected from concentration–activity curves. The data were analyzed by nonlinear regression using the program GraphPad Prism (1) v=Vmax[S]/[S](1+[I]/KI)+Km(1+[I]/Ki) where Ki and KI are the equilibrium dissociation constants for competitive and uncompetitive inhibitor binding, respectively, while, v, [S] and [I] represent the rate of product formation, the substrate and the inhibitor concentration, respectively. […] If Ki < KI, the type of enzyme inhibition was defined as competitive-noncompetitive and if Ki > KI, the type of enzyme inhibition was defined as uncompetitive–noncompetitive. […] For better visual presentation of data of inhibition mode, the Lineweaver–Burk plots were also provided.

[1] = rkbPAP, pH 4.9, 25 °C, p-NPP substrate
[2] = KI, dissociation constant of enzyme–substrate–inhibitor complex (uncompetitive)
[3] = Ki, dissociation constant of enzyme–inhibitor complex (competitive)
[4] = dissociation constant of enzyme–inhibitor complex (competitive), read-out: Ki
[5] = dissociation constant of enzyme–substrate–inhibitor complex (uncompetitive), read-out: KI
[6] = rkbPAP, pH 4.9, 25 °C, p-NPP substrate, read-out: IC50

CCCCCCS(=O)(=O)NC(c1ccc(OC)cc1)P(=O)(OCC)OCC (stereo not drawn) [3a, Diethyl(hexylsulfonamido(4-methoxyphenyl)methyl)phosphonate]
inhibition of PAP (in words): negligible inhibitions of PAP, in millimolar range | IC50 [1]: Very weak inhibitor

CCCCCCCCS(=O)(=O)NC(c1ccc(OC)cc1)P(=O)(OCC)OCC (stereo not drawn) [3b, Diethyl((4-methoxyphenyl)(octylsulfonamido)methyl)phosphonate]
inhibition of PAP (in words): negligible inhibitions of PAP, in millimolar range | IC50 [1]: Very weak inhibitor

CCCCCCCCCCCCS(=O)(=O)NC(c1ccc(OC)cc1)P(=O)(OCC)OCC (stereo not drawn) [3c, Diethyl(dodecylsulfonamido(4-methoxyphenyl)methyl)phosphonate]
IC50: 759 µM | Ki [2]: 211 ± 8 µM | Ki [3]: 202 ± 11 µM | inhibition mode: noncompetitive inhibition

CCCCCCCCCCCCCCCCS(=O)(=O)NC(c1ccc(OC)cc1)P(=O)(OCC)OCC (stereo not drawn) [3d, Diethyl(hexadecylsulfonamido(4-methoxyphenyl)methyl)phosphonate]
IC50: 92 µM | Ki [2]: 36 ± 3 µM | Ki [3]: 13 ± 1 µM | inhibition mode: mixed manner

CCCCCCS(=O)(=O)NC(c1ccc(OC)cc1)P(=O)(O)O (stereo not drawn) [4a, (Hexylsulfonamido(4-methoxyphenyl)methyl)phosphonic acid]
inhibition of PAP (in words): negligible inhibitions of PAP, in millimolar range | IC50 [1]: Very weak inhibitor

CCCCCCCCS(=O)(=O)NC(c1ccc(OC)cc1)P(=O)(O)O (stereo not drawn) [4b, ((4-Methoxyphenyl)(octylsulfonamido)methyl)phosphonic acid]
inhibition of PAP (in words): negligible inhibitions of PAP, in millimolar range | IC50 [1]: Very weak inhibitor

CCCCCCCCCCCCS(=O)(=O)NC(c1ccc(OC)cc1)P(=O)(O)O (stereo not drawn) [4c, (Dodecylsulfonamido(4-methoxyphenyl)methyl)phosphonic acid]
Ki [4]: 95 ± 9 µM | Ki [5]: 103 ± 5 µM | inhibition mode: noncompetitive inhibition | IC50 [6]: 421 µM

CCCCCCCCCCCCCCCCS(=O)(=O)NC(c1ccc(OC)cc1)P(=O)(O)O (stereo not drawn) [4d, (Hexadecylsulfonamido(4-methoxyphenyl)methyl)phosphonic acid]
Ki [4]: 1.1 ± 0.2 µM | Ki [5]: 8.2 ± 1.4 µM | inhibition mode: mixed manner | IC50 [6]: 13 µM

O=C(O)C(O)C(O)C(=O)O (stereo not drawn) [Tartrate, reference compound]
Ki [4]: 783 ± 41 µM | inhibition of PAP (in words): weakly inhibited | IC50 [6]: 3310 µM
